Laboratory results taken from ChEMBL document CHEMBL1909046, “DrugMatrix in vitro pharmacology data”.

How the values were obtained:
[1] = target: T1, Vasoactive intestinal polypeptide receptor 1 (Homo sapiens, UniProt P32241); format: cell membranes, Membrane; details: ht-29; also: in other assays of this panel Not Active means under 50% inhibition at 10 µM
T1 sequence (P32241 whole entry): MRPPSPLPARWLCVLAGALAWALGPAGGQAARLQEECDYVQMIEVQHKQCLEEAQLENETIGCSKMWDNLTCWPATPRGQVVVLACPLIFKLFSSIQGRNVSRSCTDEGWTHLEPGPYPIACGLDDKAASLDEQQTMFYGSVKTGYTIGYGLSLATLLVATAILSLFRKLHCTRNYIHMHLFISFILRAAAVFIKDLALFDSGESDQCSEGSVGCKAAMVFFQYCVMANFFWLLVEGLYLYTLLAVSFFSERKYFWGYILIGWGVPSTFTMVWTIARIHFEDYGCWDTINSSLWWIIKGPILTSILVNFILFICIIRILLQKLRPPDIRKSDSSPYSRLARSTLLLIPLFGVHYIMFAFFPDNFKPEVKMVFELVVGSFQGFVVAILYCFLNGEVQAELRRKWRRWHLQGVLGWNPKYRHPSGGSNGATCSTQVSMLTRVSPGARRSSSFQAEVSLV

[2] = target: Cytochrome P450 3A4 (Homo sapiens, UniProt P08684); details: bti-tn-5b1-4; also: in other assays of this panel Not Active means under 50% inhibition at 10 µM
Cytochrome P450 3A4, sequence (P08684 whole entry): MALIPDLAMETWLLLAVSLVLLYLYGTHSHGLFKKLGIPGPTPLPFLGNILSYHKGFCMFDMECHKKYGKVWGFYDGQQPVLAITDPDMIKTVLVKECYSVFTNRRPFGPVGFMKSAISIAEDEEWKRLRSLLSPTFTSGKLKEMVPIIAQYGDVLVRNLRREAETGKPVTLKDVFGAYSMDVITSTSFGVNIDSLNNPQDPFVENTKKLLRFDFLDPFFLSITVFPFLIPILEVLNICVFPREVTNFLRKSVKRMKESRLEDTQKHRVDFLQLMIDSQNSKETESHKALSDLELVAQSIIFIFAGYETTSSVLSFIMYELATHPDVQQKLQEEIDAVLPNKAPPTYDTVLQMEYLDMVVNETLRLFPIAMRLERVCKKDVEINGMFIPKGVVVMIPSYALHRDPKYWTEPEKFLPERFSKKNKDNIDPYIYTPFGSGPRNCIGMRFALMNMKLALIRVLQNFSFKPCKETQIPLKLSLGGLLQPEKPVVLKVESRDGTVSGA

[3] = DRUGMATRIX: Glutamate, AMPA radioligand binding (ligand: [3H] AMPA); format: cell membranes, Rattus norvegicus, Wistar, Cerebral cortex, Membrane; details: Not Active = under 50% inhibition at 10 µM
[4] = target: T2, Nitric oxide synthase, inducible (Mus musculus, UniProt P29477); parameters: species or system Escherichia coli;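 also: inhibition of iNOS enzyme activity measured with L-arginine as substrate; in other assays of this panel Not Active means under 50% inhibition at 10 µM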
T2 sequence (P29477 whole entry): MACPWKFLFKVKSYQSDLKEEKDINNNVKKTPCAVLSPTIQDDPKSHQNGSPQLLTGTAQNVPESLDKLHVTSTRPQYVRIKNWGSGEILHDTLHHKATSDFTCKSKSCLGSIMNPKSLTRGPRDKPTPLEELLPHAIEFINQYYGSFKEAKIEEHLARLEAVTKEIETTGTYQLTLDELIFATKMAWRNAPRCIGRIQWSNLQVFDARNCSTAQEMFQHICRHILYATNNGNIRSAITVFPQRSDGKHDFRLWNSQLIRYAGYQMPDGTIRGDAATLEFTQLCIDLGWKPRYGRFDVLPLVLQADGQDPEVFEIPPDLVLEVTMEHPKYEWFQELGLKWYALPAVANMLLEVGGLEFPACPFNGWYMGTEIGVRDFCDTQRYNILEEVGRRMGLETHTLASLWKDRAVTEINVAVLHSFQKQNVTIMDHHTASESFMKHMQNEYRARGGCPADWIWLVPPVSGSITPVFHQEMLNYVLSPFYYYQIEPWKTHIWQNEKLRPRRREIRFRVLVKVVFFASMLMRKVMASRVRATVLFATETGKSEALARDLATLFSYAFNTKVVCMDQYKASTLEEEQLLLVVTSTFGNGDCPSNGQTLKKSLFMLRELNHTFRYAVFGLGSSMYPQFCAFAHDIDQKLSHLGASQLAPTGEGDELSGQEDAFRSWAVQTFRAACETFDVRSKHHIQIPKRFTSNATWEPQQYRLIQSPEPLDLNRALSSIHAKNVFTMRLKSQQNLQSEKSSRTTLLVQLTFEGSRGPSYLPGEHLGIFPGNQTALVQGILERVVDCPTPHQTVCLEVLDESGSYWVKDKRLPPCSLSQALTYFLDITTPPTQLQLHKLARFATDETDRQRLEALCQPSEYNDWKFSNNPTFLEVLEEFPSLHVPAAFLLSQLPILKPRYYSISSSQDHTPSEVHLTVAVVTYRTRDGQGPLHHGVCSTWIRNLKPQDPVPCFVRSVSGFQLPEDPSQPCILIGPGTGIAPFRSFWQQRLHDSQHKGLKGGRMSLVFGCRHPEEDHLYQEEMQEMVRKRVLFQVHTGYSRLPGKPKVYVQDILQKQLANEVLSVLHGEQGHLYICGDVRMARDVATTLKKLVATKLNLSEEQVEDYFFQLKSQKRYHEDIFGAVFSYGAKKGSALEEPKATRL

[5] = target: Mitogen-activated protein kinase 3 (Homo sapiens, UniProt P27361); assay: DRUGMATRIX: Protein Serine/Threonine Kinase, ERK1 enzyme inhibition (substrate: Myelin Basic Protein); parameters: species or system Escherichia coli; details: Not Active = under 50% inhibition at 10 µM
Mitogen-activated protein kinase 3, sequence (P27361 whole entry): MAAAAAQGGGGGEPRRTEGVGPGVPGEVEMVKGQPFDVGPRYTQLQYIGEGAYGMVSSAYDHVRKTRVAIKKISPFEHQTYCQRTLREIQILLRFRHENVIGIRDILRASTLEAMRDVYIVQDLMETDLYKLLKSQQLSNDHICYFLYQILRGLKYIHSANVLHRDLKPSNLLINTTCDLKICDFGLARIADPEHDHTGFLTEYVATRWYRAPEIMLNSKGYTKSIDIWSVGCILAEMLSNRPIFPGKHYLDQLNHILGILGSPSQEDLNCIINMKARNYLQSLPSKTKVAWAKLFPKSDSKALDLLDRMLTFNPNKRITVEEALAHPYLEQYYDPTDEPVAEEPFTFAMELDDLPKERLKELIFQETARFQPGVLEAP

[6] = target: Mitogen-activated protein kinase 1 (Homo sapiens, UniProt P28482); assay: DRUGMATRIX: Protein Serine/Threonine Kinase, ERK2 enzyme inhibition (substrate: Myelin Basic Protein); parameters: species or system Escherichia coli; details: Not Active = under 50% inhibition at 10 µM
Mitogen-activated protein kinase 1, sequence (P28482 whole entry): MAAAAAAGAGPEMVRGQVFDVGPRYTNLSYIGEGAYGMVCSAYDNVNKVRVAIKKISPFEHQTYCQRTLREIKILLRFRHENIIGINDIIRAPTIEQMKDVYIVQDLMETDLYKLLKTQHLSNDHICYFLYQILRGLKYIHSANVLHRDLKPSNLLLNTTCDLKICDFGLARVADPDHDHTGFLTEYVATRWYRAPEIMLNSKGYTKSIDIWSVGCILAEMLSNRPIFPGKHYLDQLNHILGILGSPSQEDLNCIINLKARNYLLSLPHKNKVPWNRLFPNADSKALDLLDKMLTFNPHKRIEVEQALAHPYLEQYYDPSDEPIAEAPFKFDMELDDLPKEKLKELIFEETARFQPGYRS

[7] = target: T3, Alpha-1D adrenergic receptor (Homo sapiens, UniProt P25100); format: cell membranes, HEK293, Membrane; details: hek293; also: in other assays of this panel Not Active means under 50% inhibition at 10 µM
T3 sequence (P25100 whole entry): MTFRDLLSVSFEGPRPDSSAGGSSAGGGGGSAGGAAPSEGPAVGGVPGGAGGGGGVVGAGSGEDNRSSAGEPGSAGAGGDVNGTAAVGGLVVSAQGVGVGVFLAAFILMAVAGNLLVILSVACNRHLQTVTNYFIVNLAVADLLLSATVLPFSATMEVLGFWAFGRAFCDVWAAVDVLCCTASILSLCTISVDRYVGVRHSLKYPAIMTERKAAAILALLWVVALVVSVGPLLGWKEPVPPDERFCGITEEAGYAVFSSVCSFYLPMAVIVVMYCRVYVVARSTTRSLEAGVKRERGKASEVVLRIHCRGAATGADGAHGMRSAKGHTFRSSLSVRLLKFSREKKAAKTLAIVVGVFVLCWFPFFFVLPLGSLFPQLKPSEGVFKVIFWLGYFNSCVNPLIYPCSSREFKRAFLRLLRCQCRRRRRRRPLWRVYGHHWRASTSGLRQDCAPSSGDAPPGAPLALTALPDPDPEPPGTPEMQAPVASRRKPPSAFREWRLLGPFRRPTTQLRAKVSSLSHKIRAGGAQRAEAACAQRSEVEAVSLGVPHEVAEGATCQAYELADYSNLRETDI

[8] = target: Protein kinase C alpha type (Homo sapiens, UniProt P17252); format: cell-based; details: sf9

C[C@@H](N)[C@H]1CC[C@H](C(=O)Nc2ccncc2)CC1 [Y-27632]
Not Active: IC50 [1] | IC50 [2] | Ki [2] | IC50 [3] | Ki [3] | IC50 [4] | IC50 [5] | IC50 [6] | IC50 [7] | IC50 [8]

[Cl-].[Cl-].[Zn+2] [ZINC CHLORIDE]
Not Active: IC50 [1] | IC50 [2] | Ki [2] | IC50 [3] | Ki [3] | IC50 [4] | IC50 [5] | IC50 [6] | IC50 [7] | IC50 [8]
